Data set [1] relates to B16 mouse melanoma cells. Kind of data set: MTT viability assay, B16. It counts as cell-based. The conditions noted are these: B16, 72 h exposure, mean ± SD. The source says:
(§1) The rat astrocytoma C6 cell line and murine melanoma B16 cell line were kindly gifted by Dr. L. Harhaji–Trajkovic, Institute for Biological Research “Sinisa Stankovic”—National Institute of Republic of Serbia (IBISS), and from Dr. Sinisa Radulovic (Institute for Oncology and Radiology of Serbia), respectively. Human colorectal (SW620 and HCT116), breast (MCF-7), and ovarian (A2780) cancer cell lines and non-malignant fibroblast cell line (MRC5) were purchased from the American Type Culture Collection (ATCC, Manassas, Virginia, USA). […] For viability assays, cells were seeded in listed densities/well: B16 and C6: 3 × 10^3; SW620: 9 × 10^3; A2780 and HCT116: 5 × 10^3; MCF-7: 8 × 10^3 and MRC5: 7 × 10^3. For flow cytometry, A2780 cells were seeded at 2 × 10^5 density/well in 6-well plates. Peritoneal macrophages were collected from the peritoneal cavity of C57BL/6 mice from the animal facility of IBISS by cavity lavage with ice-cold PBS. […] Macrophages were counted, seeded at 2 × 10^5 cells/well in 96-well plates for viability assay, and then left for 2 h to adhere. Before treatment, non-adherent cells were removed. The handling of animals and protocol for obtaining macrophages is in the agreement with the rules of the European Union and approved by the Institutional Animal Care and Use Committee at IBISS (No. 02-09/16).
(§2) Stock solutions of 1b, 1c, 1d, and 1e were prepared in ethanol at concentration of 20 mM and kept at −20 °C, while 10 mM stock solution of cisplatin was prepared in DMF just before the usage. Desired final concentrations were obtained by dilution in culture medium.
(§3) Cells were treated with various concentrations (up to 50 or 100 µM) of the above-mentioned complexes for 72 h. For the detection of mitochondrial respiration, cells were cultivated in the presence of MTT staining solution (0.5 mg/mL) for approximately 1 h at 37 °C. The dye was then discarded, and the formed formazan crystals (purple) were dissolved in DMSO. For an evaluation of viable attached cells, cells were fixed with 4% PFA for 10 min at room temperature, and subsequently stained for 15 min with 0.02% CV solution. […] The absorbance was measured with an automated microplate reader at 540 nm, with a reference wavelength of 670 nm. The IC50 values were calculated using a four-parameter logistic function and presented as mean ± SD from three independent experiments.

Data set [2] concerns C6 rat glioma cells. Kind of data set: CV viability assay, C6. It counts as cell-based. The note with it: C6, 72 h exposure, mean ± SD.
Source text: as §1, §2, §3

The test system of data set [3] is MRC5 human fibroblast cells. Briefly: CV viability assay, MRC5. It counts as cell-based. The conditions noted are these: MRC5, 72 h exposure, mean ± SD.
Source text: as §1, §2, §3

For data set [4], the system named is MCF-7 human breast cancer cells. Kind of data set: CV viability assay, MCF-7. It counts as cell-based. The note with it: MCF-7, 72 h exposure, mean ± SD.
Source text: as §1, §2, §3

Data set [5] deals with B16 mouse melanoma cells. Briefly: CV (crystal violet) viability assay, B16. It counts as cell-based. The conditions noted are these: B16, 72 h exposure, mean ± SD.
Source text: as §1, §2, §3

The test system of data set [6] is MRC5 human fibroblast cells. Briefly: MTT viability assay, MRC5. It counts as cell-based. The conditions noted are these: MRC5, 72 h exposure, mean ± SD.
Source text: as §1, §2, §3
A general note: Tetrazolium dyes change colour on reduction, which living cells bring about.

For data set [7], the system named is MCF-7 human breast cancer cells. Briefly: MTT viability assay, MCF-7. It counts as cell-based. The note with it: MCF-7, 72 h exposure, mean ± SD.
Source text: as §1, §2, §3

In data set [8] the test system is A2780 human ovarian cancer cells. Kind of data set: CV viability assay, A2780. It counts as cell-based. The conditions noted are these: A2780, 72 h exposure, mean ± SD.
Source text: as §1, §2, §3

In data set [9] the test system is HCT116 human colorectal carcinoma cells. Briefly: CV viability assay, HCT116. It counts as cell-based. The note with it: HCT116, 72 h exposure, mean ± SD.
Source text: as §1, §2, §3

The subject of data set [10] is A2780 human ovarian cancer cells. Briefly: MTT viability assay, A2780. It counts as cell-based. The note with it: A2780, 72 h exposure, mean ± SD.
Source text: as §1, §2, §3

Data set [11] relates to HCT116 human colorectal carcinoma cells. Briefly: MTT viability assay, HCT116. It counts as cell-based. The conditions noted are these: HCT116, 72 h exposure, mean ± SD.
Source text: as §1, §2, §3

The subject of data set [12] is SW620 human colorectal adenocarcinoma cells. Kind of data set: CV viability assay, SW620. It counts as cell-based. The conditions noted are these: SW620, 72 h exposure, mean ± SD.
Source text: as §1, §2, §3

Data set [13] is described as follows: Stability in D2O mixtures by 1H NMR. The note with it: for Variation of 1H NMR spectra on storage: acetone-d6/D2O 2:1 (1b,d) or methanol-d4/D2O 2:1 (1c), 72 h at 37 °C, progressive precipitation. It counts as physicochemical. As to the method: Complexes were dissolved in acetone-d6/D2O 2:1 (1b,d), DMSO-d6/D2O 2:1 (2a–d and 3), or methanol-d4/D2O 2:1 (1c) ([Ir] ≈ 10^−3 mol L^−1), then dimethyl sulfone (0.05 mL, 0.164 mmol) was added as internal standard. The mixtures were filtered through a celite pad, and the filtrated solutions were analyzed by ^1H NMR spectroscopy.
The solutions were then stored for 72 h at 37 °C, and new NMR analyses were subsequently performed.

The subject of data set [14] is SW620 human colorectal adenocarcinoma cells. Kind of data set: MTT viability assay, SW620. It counts as cell-based. The conditions noted are these: SW620, 72 h exposure, mean ± SD.
Source text: as §1, §2, §3

The subject of data set [15] is C6 rat glioma cells. Briefly: MTT viability assay, C6. It counts as cell-based. The conditions noted are these: C6, 72 h exposure, mean ± SD.
Source text: as §1, §2, §3

Data set [16] has as its system panel of six human and rodent cancer cell lines and MRC5. Briefly: Cytotoxic activity over the whole cell line panel (MTT and CV). It counts as cell-based. The conditions noted are these: 72 h; for Cytotoxic activity in words: all investigated cell lines. As to the method: Cells were treated with various concentrations (up to 50 or 100 µM) of the above-mentioned complexes for 72 h. For the detection of mitochondrial respiration, cells were cultivated in the presence of MTT staining solution (0.5 mg/mL) for approximately 1 h at 37 °C. The dye was then discarded, and the formed formazan crystals (purple) were dissolved in DMSO. For an evaluation of viable attached cells, cells were fixed with 4% PFA for 10 min at room temperature, and subsequently stained for 15 min with 0.02% CV solution. Cells were then washed with tap water, dried in air, and the CV dye was dissolved in 33% acetic acid. The absorbance was measured with an automated microplate reader at 540 nm, with a reference wavelength of 670 nm. The IC50 values were calculated using a four-parameter logistic function and presented as mean ± SD from three independent experiments.

Usually IC50 stands for the concentration that inhibits the measured activity by half. In the case of `CCC[c-]1c(C)c(C)c(C)c1C.CCC[c-]1c(C)c(C)c(C)c1C.[Cl-].[Cl-].[Cl-].[Cl-].[Ir+3].[Ir+3]` [Complex 1c], the IC50 in data set [1] was 28 ± 4 µM; in data set [2] it was 54 ± 5 µM; in [3], above 50 µM; in [4] it was 55 ± 8 µM; in data set [5] it was 44 ± 8 µM; in [6] it was 36 ± 2 µM. For the same compound, the IC50 was 28 ± 5 µM in data set [7]; 39 ± 7 µM in data set [8]; 38 ± 3 µM in data set [9]; 13 ± 1 µM in data set [10]; 30 ± 4 µM in data set [11]; 45 ± 8 µM in data set [12]. In addition, the values for the half-maximal inhibitory concentration (IC50) in data set [14] and in data set [15] were 27 ± 2 µM and 27 ± 3 µM, respectively. The “Variation of 1H NMR spectra on storage” value in [13] was “no significant variations”. Further, the “Cytotoxic activity in words” value in data set [16] was “moderate cytotoxicity”.
Take `CC1=C(C)[C](c2ccc(F)cc2)([Ir]([Cl])[Cl])C(C)=C1C.CC1=C(C)[C](c2ccc(F)cc2)([Ir]([Cl])[Cl])C(C)=C1C` [Complex 1d]: the IC50 in [1] was determined as 20.4 ± 0.1 µM; in [2], 49 ± 1 µM; in data set [3], 22.2 ± 0.1 µM; in [4] it was 30 ± 0.4 µM; in [5], 28.1 ± 0.1 µM; in data set [6], 19.1 ± 0.2 µM. Also, the concentration for half-maximal inhibition (IC50) in [7] came out at 9.2 ± 0.5 µM; in [8] it was 20.2 ± 0.3 µM; in data set [9], 14.5 ± 1.5 µM; in [10], 16 ± 0.3 µM; in data set [11], 8.1 ± 0.7 µM; in [12] it was 18.5 ± 0.4 µM. In addition, the IC50 in data set [14] was determined as 8 ± 2 µM; in data set [15] it was 34 ± 2 µM. Also, the “Variation of 1H NMR spectra on storage” value in data set [13] is “no significant variations”. Also, in data set [16], the “Cytotoxic activity in words” value is “moderate cytotoxicity”.
In the case of `CC1=C(C)[C](c2ccc(O)cc2)([Ir]([Cl])[Cl])C(C)=C1C.CC1=C(C)[C](c2ccc(O)cc2)([Ir]([Cl])[Cl])C(C)=C1C` [Complex 1e], the IC50 is above 100 µM in data set [1]; above 100 µM in [2]; above 100 µM in [3]; 94 ± 8 µM in data set [4]; above 100 µM in data set [5]; above 100 µM in data set [6]. In addition, the IC50 in [7] was 88 ± 12 µM; in data set [9], 79 ± 8 µM; in [11], 80 ± 3 µM; in data set [12], above 100 µM; in data set [14], above 100 µM; in data set [15], 90 ± 14 µM. In addition, the IC50 in data set [16] (cell lines on which 1e is active, read-out: IC50 values, range over sensitive cell lines) lay within 80 to 90 µM. For the same compound, the “Behaviour in aqueous media in the presence of DMSO” value in data set [13] (aqueous media with DMSO) was “rapid conversion into 3”. In addition, the “Cytotoxic activity in words” value in [16] was “substantially inactive”.
With `Cc1[cH-]c(C)c(C)c1C.Cc1[cH-]c(C)c(C)c1C.[Cl-].[Cl-].[Cl-].[Cl-].[Ir+3].[Ir+3]` [Complex 1b], the IC50 in [1], in data set [2], in data set [3], in [4], in [5] and in data set [6] was above 50 µM in each case. For the same compound, the IC50 in data set [7], in [8], in data set [9], in data set [10], in data set [11] and in data set [12] was above 50 µM in each case. The IC50 in data set [14] and in data set [15] was above 50 µM in each case. The “Variation of 1H NMR spectra on storage” value in data set [13] is recorded as “no significant variations”. In addition, the “Cytotoxic activity in words” value in data set [16] is “substantially inactive”.
For the compound `N.N.[Cl][Pt][Cl]` [Cisplatin, cisplatin, reference compound], the IC50 stood at 5.6 ± 0.2 µM in data set [1]; 1.2 ± 0.1 µM in data set [2]; 0.8 ± 0.1 µM in data set [3]; 1.2 ± 0.3 µM in data set [4]; 11.6 ± 0.3 µM in data set [5]; 0.6 ± 0.2 µM in data set [6]. For the same compound, the IC50 stood at 0.8 ± 0.2 µM in data set [7]; 3.8 ± 0.5 µM in data set [8]; 8 ± 0.7 µM in data set [9]; 1.9 ± 0.2 µM in data set [10]; 1.5 ± 0.1 µM in data set [11]; 11 ± 3 µM in data set [12]. Also, the IC50 in data set [14] was found to be 11.6 ± 0.1 µM; in data set [15] it was 0.6 ± 0.2 µM.
On to `CS(C)=O.Cc1c(C)c(C)[c-](-c2ccc(O)cc2)c1C.[Cl][Ir+][Cl]` [Complex 3, (4-(2,3,4,5-tetramethylcyclopenta-1,4-dien-1-yl)phenol)dimethylsulfoxide iridium(III)dichloride], for which the IC50 in data set [1], in data set [2], in [3], in data set [4], in data set [5] and in data set [6] was above 100 µM in each case. The IC50 in data set [7], in data set [9], in [11], in [12], in data set [14] and in data set [15] was above 100 µM each time. The “Fraction of unaltered compound” value in [13] (DMSO-d6/D2O 2:1, 72 h at 37 °C, 1H NMR, dimethyl sulfone standard) is reported as 98%. In data set [16], the “Cytotoxic activity in words” value was “inactive”.

The values are drawn from article PMC8306930, “A Comparative Analysis of the In Vitro Anticancer Activity of Iridium(III) {η^5-C5Me4R} Complexes with Variable R Groups” (International Journal of Molecular Sciences, 2021).
